# From US20180344725A1, “QUINOLONE CHALCONE COMPOUNDS AND USES THEREOF” (priority 2015, published 2018)
# Legend:
# [1] = system: MDA-MB-231 human metastatic breast cancer cells; assay: Anti-tumor activity in xenograft mice; format: in vivo; details: Tax 10 mg/kg I.V. once/week, CTR 30 mg/kg I.P. every 3 days, or Tax 5 + CTR 15 mg/kg once/week
# Protocol: Five-week old female CD-1 and ATH490 (strain code 490) athymic nude mice were purchased from Charles River (Quebec, Canada). The MDA-MB-231 human metastatic breast cancer cells were obtained from the American Tissue Culture Collection (ATCC, Manassas, Va., USA). Cells were maintained under humidified conditions at 37° C. and 5% CO2 in DMEM high glucose medium (ATCC) supplemented with 10% fetal bovine serum and antibiotics.
# For paclitaxel treatments, 40 mg/ml stock solution of paclitaxel (Sigma, MO) was prepared in DMSO. Just before administration to mice, the paclitaxel stock solution was diluted ten-fold in a buffer containing 10% DMSO, 12.5% Cremophor, 12.5% ethanol, and 65% saline-based diluent (0.9% sodium chloride, 5% polyethylene glycol, and 0.5% tween-80) which is defined as vehicle (Huang et al., 2006). Alanine transaminase (ALT, SUP6001-c)/Aspartate transaminase (AST, SUP6002-c) color endpoint assay kits were purchased from ID Labs Biotechnology (London, Ontario, Canada). Elevation of ALT and AST levels in serum samples was used as an indicator of liver damage/injury.
# To determine the anti-tumor activity of CTR compounds in animals, a xenograft model of human breast cancer cells in athymic nude mice was established. Exponentially growing MDA-MB-231 metastatic breast cancer cells were harvested and counted for inoculation into mice. Each mouse was subcutaneously injected at the flank with 10×10^6 cells in 0.2 ml ice cold 1×PBS. When tumor size reached 4-5 mm in diameter (n=4-5 per group), mice were randomly assigned into several groups as described herein.
# Animals were monitored for food and water consumption every day, and their body weights and tumor volumes were measured twice per week. Tumor volumes were measured with a digital caliper and were determined by using the following formula: ½ length×width^2. Blood samples were collected via cardiac puncture and processed further for ALT and AST measurements. The animals were then immediately euthanized by carbon dioxide. Tumors and vital organs (spleen, kidney, liver and lung) were collected and fixed in 10% buffered formalin at 4° C. overnight before being processed for paraffin embedding. The paraffin-embedded blocks were then cut into 4-5 μm thick sections. Each section of tumors and organs was stained with hematoxylin and eosin (H&E).
# 184B5 = assay: SRB-based cytotoxicity assay; format: cell-based; details: Homo sapiens; 184B5 non-cancer; SRB; Table 2
# Protocol: (§1) For (anti)proliferation assays, 4,000-5,000 cells/well of the 96-well clustered dish were incubated for 16 hours, as described previously (Hu et al., 2008; Skehan et al., 1990). After 16 hours, culture medium was replaced with fresh medium containing different dilutions of test compounds dissolved in DMSO. Some wells were treated with 100 μl of 10% trichloroacetic acid (TCA) as a negative control and sham (medium with dimethyl sulfoxide; DMSO) treated cells were used as a positive control. After 72 hours post-incubation, medium was removed and cells were fixed with 10% TCA at 4° C. for 1 hour. TCA was removed and cells were washed with cold tap water, and plate was air-dried, followed by addition of 50 μl of 0.4% SRB staining solution to each well. After 30 minutes incubation, SRB staining solution was removed. Cells were washed with 1% acetic acid solution, and then washed with tap water to remove unbound staining solution, followed by air-drying. 200 μl of 10 mM (pH10.5) trizma base buffer was added to each well to solubilise macromolecules. SRB stained macromolecules were determined at a 540 nm wavelength using an automated plate reader (Synergy H4 Hybrid Multi-Mode Microplate Reader, BioTek, Winooski, Vt.). Cell growth (inhibition) was calculated by the following formula:
# (§2) % cells proliferation=[(AT−CT)/(ST−CT)]×100
# (§3) wherein AT=absorbance of treated cells, CT=absorbance of negative control cells, and ST=absorbance of sham treated cells. IC50 values were calculated from sigmoidal dose-response curves generated by two independent biological replicates, with quadruplicate in each set by using Graph Pad Prism v.5.04 software. […] The combinational index (CI) was calculated as described previously (Chou 2006). If the CI values were less than, equal to or more than 1, it indicates a synergistic, additive or antagonistic effect respectively (Chou 2006). CI values were determined from four independent experiments.
# K562 = assay: SRB-based cytotoxicity assay; format: cell-based; details: Homo sapiens, Table 2
# Protocol: as §1, §2, §3
# MDA-MB-468 = assay: SRB-based cytotoxicity assay; format: cell-based, human; details: Homo sapiens; MDA-MB-468; SRB; Table 2
# Protocol: as §1, §2, §3
# MDA-MB-231 = assay: SRB-based cytotoxicity assay; format: cell-based, human; details: Homo sapiens; MDA-MB-231; SRB; Table 2
# Protocol: as §1, §2, §3
# MCF-7 = assay: SRB-based cytotoxicity assay; format: cell-based, human; details: Homo sapiens, MCF7; MCF-7; SRB; Table 2
# Protocol: as §1, §2, §3
# H69AR = assay: SRB-based cytotoxicity assay; format: cell-based, human; details: H69AR versus SW-1271
# Protocol: (§4) 1845B5 and MCF-10A non-cancer breast cell lines were cultured in DME/F12 medium supplemented with 10% fetal bovine serum, antibiotics and growth factors. […] The human small cell lung carcinoma H69 cell line and its multidrug-resistant MRP1-overexpressing isogenic H69AR cell line were purchased from ATCC. […] H69 cells grow as large multi-cell aggregates, making it difficult to accurately count cell numbers. […] The IL-6 dependent bortezomib-resistant ANBL6-BR cell line was further supplemented with 1 ng/ml of IL-6. The MCF10AT1 and MCF10CA1a cell lines are isogenic to the MCF10A cell line, and obtained from Dr. Valerie Weaver at the Center for Bioengineering and Tissue Regeneration, UCSF, CA, USA. […] The drug-resistant cells were cultured in the absence of drug for at least one passage before carrying out experiments. All cells were maintained in a humidified incubator at 37° C. […] Cell line authentication was performed using short tandem repeat (STR) profiling. […] Some wells were treated with 100 μl of 10% trichloroacetic acid (TCA) as a negative control and sham (medium with dimethyl sulfoxide; DMSO) treated cells were used as a positive control. […] TCA was removed and cells were washed with cold tap water, and plate was air-dried, followed by addition of 50 μl of 0.4% SRB staining solution to each well. After 30 minutes incubation, SRB staining solution was removed. Cells were washed with 1% acetic acid solution, and then washed with tap water to remove unbound staining solution, followed by air-drying. 200 μl of 10 mM (pH10.5) trizma base buffer was added to each well to solubilise macromolecules. […] Cell growth (inhibition) was calculated by the following formula: % cells proliferation=[(AT-CT)/(ST-CT)]×100 wherein AT=absorbance of treated cells, CT=absorbance of negative control cells, and ST=absorbance of sham treated cells. […] CI values were determined from four independent experiments.
# KB-C-1 = assay: SRB-based cytotoxicity assay; format: cell-based; details: Homo sapiens, KBC-1; KB-C-1, multidrug naïve
# Protocol: as §4
# KB-C-2 = assay: SRB-based cytotoxicity assay, single and combination with paclitaxel; format: cell-based, human; details: KB-C-2 versus KB-C-1
# Protocol: as §4
SMILES,tumor size (volume) ([1]; Day 0),tumor size (volume) ([1]; Day 6),tumor size (volume) ([1]; Day 14),tumor size (volume) ([1]; Day 17),tumor size (volume) ([1]; Day 20),tumor size (volume) ([1]; Day 24),tumor size (volume) ([1]; Day 27),tumor size (volume) ([1]; Day 30),IC50 (184B5),IC50 (K562),IC50 (MDA-MB-468),IC50 (MDA-MB-231),IC50 (MCF-7),Resistance (fold) (H69AR),IC50 (KB-C-1),Resistance (fold) (KB-C-2)
"COc1ccccc1C(=O)/C=C/c1cc2cc(C)ccc2[nH]c1=O [CTR-18, (E)-3-(3-(2-Methoxyphenyl)-3-oxoprop-1-enyl)-6-methylquinolin-2(1H)-one]",92.51 mm^3,111.09 mm^3,138.10 mm^3,145.48 mm^3,166.84 mm^3,143.78 mm^3,141.52 mm^3,253.37 mm^3,3890 nM,210 ± 20 nM,80 nM,930 nM,120 nM,,,
"COc1ccc2cc(/C=C/C(=O)c3ccccc3OC)c(=O)[nH]c2c1 [CTR-19, (E)-7-Methoxy-3-(3-(2-methoxyphenyl)-3-oxoprop-1-enyl) quinolin-2(1H)-one]",92.51 mm^3,84.79 mm^3,99.68 mm^3,92.27 mm^3,115.39 mm^3,124.76 mm^3,143.62 mm^3,200.77 mm^3,3940 nM,950 ± 650 nM,1910 nM,5110 nM,1930 nM,,,
"CC[C@]1(O)C[C@@H]2CN(CCc3c([nH]c4ccccc34)[C@@](C(=O)OC)(c3cc4c(cc3OC)N(C)[C@H]3[C@@](O)(C(=O)OC)[C@H](OC(C)=O)[C@]5(CC)C=CCN6CC[C@]43[C@@H]65)C2)C1 [Vinblastine, reference compound]",,,,,,,,,,,,,,5.82 fold,0.61 ± 0.09 nM,15.20 fold
